Reference: patent US20240082342A1, “PEPTIDE THERAPEUTICS FOR INCREASING LUNG CELL VIABILITY” (BOARD OF REGENTS, THE UNIVERSITY OF TEXAS SYSTEM, priority 2018, published 2024)
“Also recorded” adds a separate entry of the source.

How the values were obtained:
A2ECs treated with CSE = assay: A2ECs exposed to cigarette smoke extract (CSE) in vitro; type: cell-based; conditions: primary A2ECs + CSE
Experimental: A2ECs were treated with PBS, CSP or its fragment, CSP7 or control peptide (CP), 2 h after exposure of cells to CSE. A2EC lysates were immunoblotted for acetylated/total p53 and active/total caspase-3 24 h after CSE exposure. β-actin levels were evaluated to assess equal loading.
To further confirm CSP7 mimics CSP effect, primary A2ECs were treated with cigarette smoke extract (CSE) prepared in PBS in the presence of CSP or CSP7. The A2ECs treated with CSE and CP or PBS alone were used as controls. The A2EC lysates were tested for acetylated and total p53, apoptosis and Sirt1 expression. CSE induced total and acetylated p53 while inhibiting Sirt1 expression in A2ECs indicating inhibition of Sirt1-mediated deacetylation of p53 contributes to induction of acetylated and total p53 and A2EC apoptosis.

PP2A = PP2A activity assay in AECs and lung tissues from COPD lungs; type: cell-based, human
Experimental: PP2A Activity Determination and PP2A Inhibitors PP2A activity was determined using the Millipore PP2A activity assay (17-313; Millipore) (Nath S, et al., Am J Respir Cell Mol Biol. 59:695-705, 2018 December).
Determination of protein phosphatase 2A (PP2A) activity. PP2A activity was determined in isolated AECs and lung homogenates using the PP2A activity assay kit (Millipore) (Nath et al, Am J Respir Cell Mol Biol 59:695-705, 2018. doi: 10.1165/rcmb.2018-01730C.)

A2Cs of PAI-1^−/− mice = assay: Tobacco smoke or repeated bleomycin exposure of PAI-1-/- mice; type: in vivo, mouse; conditions: for IHC TRF1 or TRF2 antigen expression / telomerase enzyme activity (trapeze) / telomere length: PAI-1-/- mice; for IHC TRF1 or TRF2 antigen expression / telomerase enzyme activity (trapeze): TS; for telomere length: smoke or BLM; for p53, Acp53, S15p53, cleaved caspase-3, β-galactosidase, SIAH1/2, PNUTS, TRF1, TRF2, TERT (Western blot): 8X-BLM; for telomere length (qPCR): 20 weeks TS; for p53, Acp53, S15p53, cleaved caspase-3, β-galactosidase in AT2 cells (Western blot): CS 20 weeks
Experimental: To analyze the effect of cigarette smoke, mice were exposed to passive smoke from 40 research cigarettes over a 2-hour period once (2 h) or twice (4 h) daily for 5 days/week for 20 weeks (˜90 mg/m^3 total solid particulates) using a mechanical smoking chamber (Teague Enterprises, Davis, CA). Control mice were exposed to ambient air. At the 18th week, peptide treatment at a dosage of 30 μg/20 g body weight was initiated and continued on a daily basis for the next 14 days. At the end of the experiment, the mice were euthanized and used for the experiments.
To analyze the effect of BLM, mice were exposed to BLM (40 μg/20 g body weight) once per two week for 16 weeks. Control mice were exposed to normal saline. At 14th week the peptide treatment at a dosage of 30 μg/20 g body weight was initiated and continued on a daily basis for the next 14 days. At the end of the experiment, the mice were euthanized and used for the experiments.
To test the effect of chronic TS exposure induced lung injury, these mice were exposed to passive TS from 40 research cigarettes over a 4 h period 5 days/week for 20 weeks (˜90 mg/m3 total solid particulates) using a mechanical smoking chamber (Teague Enterprises, Davis, CA) as described earlier. (Bhandary et al, 2015). Control mice were kept in ambient air. After sixteen weeks of daily passive TS exposure, mice with TS exposure injury were treated with CSP7 at a dosage of 1.5 mg/kg body weight daily 5 days/week for the next four weeks. These mice were continued with daily exposure of 4 h of TS during CSP7 treatment. At the end of the experiment (after 20 weeks of TS exposure), the mice were euthanized, and lungs were utilized for further analyses. To expand the local delivery options of CSP7 to directly treat the damaged lung by air-jet milling for dry powder inhalation (DPI). Mice exposed to TSE were treated with CSP7 using a rotating brush generator for 15 min daily for 7 days. Fourteen days later, BLM mice were subjected to daily inhalation of micronized CSP7 (0.05 mg/kg/d) DP through air-jet-milling for seven consecutive days using a rotating brush exposure system. The rotating brush exposure system gave a consistent minimal chamber concentration of 0.1 mg/L. In order to match dosing of DP inhalation, animal exposure times were adjusted to approximately 15 minutes and an estimated dose of 0.05 mg/kg/d or 1.00 microgram/lung was administered.
To evaluate the effect of CSP7 against chronic BLM-induced PF, the mice were exposed to BLM (40 μg/20 g body weight) once every two weeks for 16 weeks as described elsewhere. (Tiwari et al, 2016). Control mice were exposed to normal saline. Fourteen weeks later the CSP7 at a dosage of 1.5 mg/kg body weight was administered by IP injection and continued daily basis for the next two weeks as described elsewhere. (Tiwari et al, 2016; Shetty et al, 2008b). At the end of the experiment, the mice were euthanized and lung tissues and isolated A2Cs from the extracted lung tissues were used for further analysis.

[1] = test system: AECs from human nL exposed to CSE; assay: Normal lung AECs exposed to TS/CS extract in vitro for 48 h; type: cell-based
Experimental: Primary Airway Epithelial Cells (AECs); Normal, Human (ATCC® PCS-301-010™) and Primary Airway Epithelial Cells; COPD (ATCC® PCS-301-013™) were obtained from the ATCC and cultured in Airway Cell Basal Medium with glutamine, Extract P, HLL Supplement, and AEC Supplement. containing and 1% penicillin-streptomycin. The cells were maintained at 37° C. in a humidified atmosphere at 5% CO2. All media, supplements, and antibiotics were purchased from ATCC.
Research cigarettes 2R4F were purchased from the Tobacco Health Research University of Kentucky (Lexington, KY). TSE extracts were prepared by burning research cigarettes in a side arm flask and the smoke generated was bubbled into phosphate-buffered saline at room temperature through an attached peristaltic pump as described earlier (Bhandary et al PloS One 10: e0123187, 2015) Tiwari et al. Am J Physiol Lung Cell Mol Physiol. 310:L496-506, 2016. An absorbance of 1.0 at 230 nm is considered 100%. TSE extract was filter sterilized by passing it through a 0.2-μm filter.
Preparation of CSE for the treatment of AECs in vitro. Research cigarettes 2R4F were purchased from the Tobacco Health Research, University of Kentucky (Lexington, KY). CSE were prepared by burning research cigarettes in a sidearm flask and the smoke generated was bubbled into phosphate-buffered saline (PBS) at room temperature through an attached peristaltic pump as described earlier (Shetty et al, 2012). An absorbance of 1.0 at 230 nm is considered 100%. CSE was filter sterilized by passing it through a 0.2-μm filter.
CSP7 inhibits MH and cilia dysfunction in AECs exposed to CS extract (CSE). To further confirm the above findings, AECs isolated from human nL were exposed to CSE in vitro for 48 h and analyzed for MUC5AC, HDAC6, FOXA2, FOXA3, SPDEF, acetylated alpha-tubulin, p53, PAI-1 and LC3. […] The changes at protein level allied with corresponding changes at the mRNA levels (FIG. 36B). […] CSE induced co-localization of MUC5AC and HDAC6, and acetylated alpha-tubulin and LC3 were inhibited following treatment with CSP7.

Substance | CSE-induced apoptosis (A2ECs treated with CSE) | PP2A activity (PP2A; AECs from COPD lungs, 48 h) | IHC TRF1 or TRF2 antigen expression (A2Cs of PAI-1^−/− mice) | telomerase enzyme activity (trapeze) (A2Cs of PAI-1^−/− mice) | telomere length (A2Cs of PAI-1^−/− mice) | p53, Acp53, S15p53, cleaved caspase-3, β-galactosidase, SIAH1/2, PNUTS, TRF1, TRF2, TERT (Western blot) (A2Cs of PAI-1^−/− mice; PAI-1-deficient mice) | telomere length (qPCR) (A2Cs of PAI-1^−/− mice; PAI-1-deficient mice) | p53, Acp53, S15p53, cleaved caspase-3, β-galactosidase in AT2 cells (Western blot) (A2Cs of PAI-1^−/− mice; PAI-1-deficient mice) | expression of p53 in A2Cs (A2Cs of PAI-1^−/− mice; PAI-1-deficient mice, TS or BLM) | acetylated alpha-tubulin (immunofluorescence) ([1]; AECs + CSE) | TS-induced MUC5A gene expression ([1]; bronchial epithelial cells) | Caveolin1 expression ([1]; nL AECs + TSE) | MUC5AC, HDAC6, FOXA3, SPDEF and FOXA2 mRNA (qPCR) ([1]; nL AECs + TSE) | autophagy protein markers (Western blot) ([1]; nL AECs + TSE) | cilia length and number of ciliated cells ([1]; nL AECs + TSE/CSE) | co-localization of MUC5AC/HDAC6 and Ac-Tubulin/LC3 ([1]; nL AECs + TSE/CSE) | MUC5AC, HDAC6, FOXA3, SPDEF, CAV1, p53, PAI-1, LC3, FOXA2, Ac-Tub proteins (Western blot) ([1]; nL AECs + TSE/CSE 48 h) | PP2A activity (PP2A; COPD lung tissues ex vivo, 10 μM, 72 h)
DGIWKASFTTFTVTKYWFYR (listed as Homo sapiens) [CSP, 20 residue caveolin-1 scaffolding domain peptide] | inhibited CSE-induced apoptosis | – | – | – | – | – | – | – | – | – | – | – | – | – | – | – | – | –
FTTFTVT (listed as Homo sapiens) [CSP7, heptapeptide fragment of the caveolin-1 scaffolding domain peptide CSP] | inhibited CSE-induced apoptosis | increased activity of PP2AC; also recorded: significantly improved | minimal change in TRF1 or TRF2 antigen expression | no significant change activity | no significant change in telomere length | little or no difference | minimal effect on telomere length | little or no difference | minimal effect | improved; also recorded: reversed with CSP7 treatment | inhibited TS-induced MUC5A gene expression | reversed by CSP7 | reversed by CSP7 treatment | reversed by CSP7 | significantly improved; also recorded: significantly reversed | reversal of the co-localization; also recorded: inhibited | reversed with CSP7 treatment | –
WGIDKAFFTTSTVTYKWFRY [CP, scrambled control peptide with the same amino acid composition as CSP, reference compound] | – | failed to increase the PP2A activity | minimal change in TRF1 or TRF2 antigen expression | no significant change activity | no significant change in telomere length | little or no difference | minimal effect on telomere length | little or no difference | – | – | – | – | – | – | failed to respond | – | – | minimal effect
